Test system: pERK1/2(THR202/TYR204) level in AsPC-1 cells
Assay: pERK assay (HTRF) in AsPC-1 cell line
Assay type: cell-based
Settings: Homo sapiens, ASPC1, 2 h, 2 h compound treatment
Experimental: AsPC-1 cell line was used in this study. Cells were maintained in RPMI-1640 supplemented with 10% fetal bovine serum (Thermo Fisher), 50 units/mL penicillin and streptomycin (Thermo Fisher) and kept at 37° C. in a humidified atmosphere of 5% CO2 in air. Cells were reinstated from frozen stocks that were laid down within 30 passages from the original cells purchased. 30000 cells per well were seeded into a 96-well plate and incubated overnight. Cells were treated with a 10-point dilution series. The final compound concentration is from 0 to 10 μM. After 2 h compound treatment, cells were lysed, and the pERK1/2(THR202/TYR204) level in the cell lysates was detected by HTRF kit (Cisbio). In brief, a total of 16 μL of cell lysate from each well of a 96-well plate was transferred to a 384-well white assay plate. Lysate from each well was incubated with 2 μL of Eu3+-cryptate (donor) labeled anti-phospho-ERK1/2 and 2 μL of D2 (acceptor) labeled anti-phospho-ERK1/2 antibodies (Cisbio) overnight in dark at room temperature. When donor and acceptor are in close proximity, excitation of the donor with laser triggers a Fluorescence Resonance Energy Transfer (FRET) towards the acceptor, which in turn fluoresces at 655 nm wavelength. FRET signals were measured using a PHERAstar FSX reader (BMG Labtech). IC50 determination was performed by fitting the curve of percent inhibition versus the log of the inhibitor concentration using Dotmatics.

Row | Structure (SMILES) | IC50 [nM]
1 | N#Cc1c(N)sc2c(F)ccc(-c3c(C(F)(F)F)cc4c(N5CC6CCC(C5)N6)nc(OCC5(F)CCOC5)nc4c3F)c12 (stereo not drawn) [Example 25, 4-(4-(3,8-diazabicyclo[3.2.1]octan-3-yl)-8-fluoro-2-((3-fluorotetra hydrofuran-3-yl)methoxy)-6-(trifluoromethyl)quinazolin-7-yl)-2-amino-7-fluoro benzo[b]thiophene-3-carbonitrile] | 201
2 | N#Cc1c(N)sc2c(F)ccc(-c3c(C(F)(F)F)cc4c(N5CC6CCC(C5)N6)nc(OCC5(C(F)(F)F)CCOC5)nc4c3F)c12 (stereo not drawn) [Example 26, 4-(4-(3,8-diazabicyclo[3.2.1]octan-3-yl)-8-fluoro-6-(trifluoromethyl)-2-((3-(trifluoromethyl)tetrahydrofuran-3-yl)methoxy)quinazolin-7-yl)-2-amino-7-fluorobenzo[b]thiophene-3-carbonitrile] | 1460
3 | CC1(O)COCC1COc1nc(N2CC3CCC(C2)N3)c2cc(C(F)(F)F)c(-c3ccc(F)c4sc(N)c(C#N)c34)c(F)c2n1 (stereo not drawn) [Example 27, 4-(4-(3,8-diazabicyclo[3.2.1]octan-3-yl)-8-fluoro-2-((4-hydroxy-4-methyltetrahydrofuran-3-yl)methoxy)-6-(trifluoromethyl)quinazolin-7-yl)-2-amino-7-fluorobenzo[b]thiophene-3-carbonitrile] | 975
4 | COC1(COc2nc(N3CC4CCC(C3)N4)c3cc(C(F)(F)F)c(-c4ccc(F)c5sc(N)c(C#N)c45)c(F)c3n2)COC1 [Example 28, 4-(4-(3,8-diazabicyclo[3.2.1]octan-3-yl)-8-fluoro-2-((3-methoxyoxetan-3-yl)methoxy)-6-(trifluoromethyl)quinazolin-7-yl)-2-amino-7-fluorobenzo[b]thiophene-3-carbonitrile] | 78
5 | CC12CC(COc3nc(N4CC5CCC(C4)N5)c4cc(C(F)(F)F)c(-c5cc(O)cc6ccccc56)c(F)c4n3)(CO1)C2 [Example 29, 4-(4-(3,8-diazabicyclo[3.2.1]octan-3-yl)-8-fluoro-2-((1-methyl-2-oxabicyclo[2.1.1]hexan-4-yl)methoxy)-6-(trifluoromethyl)quinazolin-7-yl)naphthalen-2-ol] | > 10000
6 | N#Cc1c(N)sc2c(F)ccc(-c3c(C(F)(F)F)cc4c(N5CC6CCC(C5)N6)nc(OCC56COC(C#N)(C5)C6)nc4c3F)c12 [Example 30, 4-(((7-(2-amino-3-cyano-7-fluorobenzo[b]thiophen-4-yl)-4-(3,8-diazabicyclo[3.2.1]octan-3-yl)-8-fluoro-6-(trifluoromethyl)quinazolin-2-yl)oxy)methyl)-2-oxabicyclo[2.1.1]hexane-1-carbonitrile] | 71
7 | CC1(COc2nc(N3CC4CCC(C3)N4)c3cc(C(F)(F)F)c(-c4ccc(F)c5sc(N)c(C#N)c45)c(F)c3n2)CN(C(=O)C2CC2)C1 [Example 31, 4-(4-(3,8-diazabicyclo[3.2.1]octan-3-yl)-2-((1-(cyclopropanecarbonyl)-3-methylazetidin-3-yl)methoxy)-8-fluoro-6-(trifluoromethyl)quinazolin-7-yl)-2-amino-7-fluorobenzo[b]thiophene-3-carbonitrile] | 299
8 | CCC1(COc2nc(N3CC4CCC(C3)N4)c3cc(C(F)(F)F)c(-c4ccc(F)c5sc(N)c(C#N)c45)c(F)c3n2)COC1 [Example 32, 4-(4-(3,8-diazabicyclo[3.2.1]octan-3-yl)-2-((3-ethyloxetan-3-yl)methoxy)-8-fluoro-6-(trifluoromethyl)quinazolin-7-yl)-2-amino-7-fluorobenzo[b]thiophen-3-carbonitrile] | 110
9 | N#Cc1c(N)sc2c(F)ccc(-c3c(C(F)(F)F)cc4c(N5CC6CCC(C5)N6)nc(OCC5CC6(COC6)C5)nc4c3F)c12 [Example 33, 4-(2-((2-oxaspiro[3.3]heptan-6-yl)methoxy)-4-(3,8-diazabicyclo [3.2.1]octan-3-yl)-8-fluoro-6-(trifluoromethyl)quinazolin-7-yl)-2-amino-7-fluoro benzo[b]thiophene-3-carbonitrile] | 163
10 | CC(F)(F)C1(COc2nc(N3CC4CCC(C3)N4)c3cc(C(F)(F)F)c(-c4ccc(F)c5sc(N)c(C#N)c45)c(F)c3n2)COC1 [Example 34] | 81
11 | N#CCC1(COc2nc(N3CC4CCC(C3)N4)c3cc(C(F)(F)F)c(-c4ccc(F)c5sc(N)c(C#N)c45)c(F)c3n2)CCOCC1 [Example 35, 4-(4-(3,8-diazabicyclo[3.2.1]octan-3-yl)-2-((4-(cyanomethyl)tetra hydro-2H-pyran-4-yl)methoxy)-8-fluoro-6-(trifluoromethyl)quinazolin-7-yl)-2-amino-7-fluorobenzo[b]thiophene-3-carbonitrile] | 275
12 | CC(=O)N1CC(F)(COc2nc(N3CC4CCC(C3)N4)c3cc(C(F)(F)F)c(-c4ccc(F)c5sc(N)c(C#N)c45)c(F)c3n2)C1 [Example 36, 4-(2-((1-acetyl-3-fluoroazetidin-3-yl)methoxy)-4-(−3,8-diazabicyclo[3.2.1]octan-3-yl)-8-fluoro-6-(trifluoromethyl)quinazolin-7-yl)-2-amino-7-fluorobenzo[b]thiophene-3-carbonitrile] | 250
13 | N#CCC1(COc2nc(N3CC4CCC(C3)N4)c3cc(C(F)(F)F)c(-c4ccc(F)c5sc(N)c(C#N)c45)c(F)c3n2)CCOC1 (stereo not drawn) [Example 37, 4-(4-(3,8-diazabicyclo[3.2.1]octan-3-yl)-2-((3-(cyanomethyl)tetra hydrofuran-3-yl)methoxy)-8-fluoro-6-(trifluoromethyl)quinazolin-7-yl)-2-amino-7-fluorobenzo[h]thiophene-3-carbonitrile] | 119
14 | CC1(COc2nc(N3CC4CCC(C3)N4)c3cc(C(F)(F)F)c(-c4ccc(F)c5sc(N)c(C#N)c45)c(F)c3n2)CN(S(C)(=O)=O)C1 [Example 38, 4-(4-(3,8-diazabicyclo[3.2.1]octan-3-yl)-8-fluoro-2-((3-methyl-1-(methylsulfonyl)azetidin-3-yl)methoxy)-6-(trifluoromethyl)quinazolin-7-yl)-2-amino-7-fluorobenzo[b]thiophene-3-carbonitrile] | 180
15 | COC1(COc2nc(N3CC4CCC(C3)N4)c3cc(C(F)(F)F)c(-c4ccc(F)c5sc(N)c(C#N)c45)c(F)c3n2)CN(C(C)=O)C1 [Example 39, 4-(2-((1-acetyl-3-methoxyazetidin-3-yl)methoxy)-4-(3,8-diazabicyclo [3.2.1]octan-3-yl)-8-fluoro-6-(trifluoromethyl)quinazolin-7-yl)-2-amino-7-fluorobenzo[b]thiophene-3-carbonitrile] | 495
16 | CC(=O)N1CC2(COc3nc(N4CC5CCC(C4)N5)c4cc(C(F)(F)F)c(-c5ccc(F)c6sc(N)c(C#N)c56)c(F)c4n3)CC1C2 [Example 40, 4-(2-((2-acetyl-2-azabicyclo[2.1.1]hexan-4-yl)methoxy)-4-(3,8-diazabicyclo[3.2.1]octan-3-yl)-8-fluoro-6-(trifluoromethyl)quinazolin-7-yl)-2-amino-7-fluorobenzo[b]thiophene-3-carbonitrile] | 236
17 | COCCNC1C[C@H]2CC[C@@H]1N2c1nc(OCC23COC(C2)C3)nc2c(F)c(-c3ccc(F)c4sc(N)c(C#N)c34)c(C(F)(F)F)cc12 (stereo partly drawn) [Example 41, 4-(2-((2-oxabicyclo[2.1.1]hexan-4-yl)methoxy)-8-fluoro-4-((1S,4R)-2-((2-methoxyethyl)amino)-7-azabicyclo[2.2.1]heptan-7-yl)-6-(trifluoromethyl)quinazolin-7-yl)-2-amino-7-fluorobenzo[b]thiophene-3-carbonitrile] | 860
18 | CC12CC(COc3nc(N4CC5CCC(C4)N5)c4ccc(-c5cc(O)cc6ccccc56)c(F)c4n3)(CO1)C2 [Example 42, 4-(4-(3,8-diazabicyclo[3.2.1]octan-3-yl)-8-fluoro-2-((1-methyl-2-oxabicyclo[2.1.1]hexan-4-yl)methoxy)quinazolin-7-yl)naphthalen-2-ol] | 4340
19 | N#Cc1c(N)sc2c(F)ccc(-c3c(C(F)(F)F)cc4c(N5CC6CCC(C5)N6)nc(OCC5(C(F)F)CCOCC5)nc4c3F)c12 [Example 43, 4-(4-(3,8-diazabicyclo[3.2.1]octan-3-yl)-2-((4-(difluoromethyl)tetrahydro-2H-pyran-4-yl)methoxy)-8-fluoro-6-(trifluoromethyl)quinazolin-7-yl)-2-amino-7-fluorobenzo[h]thiophene-3-carbonitrile] | 479
20 | N#Cc1c(N)sc2c(F)ccc(-c3c(C(F)(F)F)cc4c(N5CC6CCC(C5)N6)nc(OCC5(F)COC5)nc4c3F)c12 [Example 44, 4-(4-(3,8-diazabicyclo[3.2.1]octan-3-yl)-8-fluoro-2-((3-fluorooxetan-3-yl)methoxy)-6-(trifluoromethyl)quinazolin-7-yl)-2-amino-7-fluorobenzo [b]thiophene-3-carbonitrile] | 211
21 | COC1(COc2nc(N3CC4CCC(C3)N4)c3cc(C(F)(F)F)c(-c4ccc(F)c5sc(N)c(C#N)c45)c(F)c3n2)CC1 [Example 45, 4-(4-(3,8-diazabicyclo[3.2.1]octan-3-yl)-8-fluoro-2-((1-methoxycyclopropyl)methoxy)-6-(trifluoromethyl)quinazolin-7-yl)-2-amino-7-fluorobenzo[b] thiophene-3-carbonitrile] | 115
